The source of these data is article PMC8472513, “(−)-6-epi-Artemisinin, a Natural Stereoisomer of (+)-Artemisinin in the Opposite Enantiomeric Series, from the Endemic Madagascar Plant Saldinia proboscidea, an Atypical Source” (Molecules, 2021).

Where two headings read alike, the source gives them in different places.

For one data set, the system named is haem polymerization. The data set can be described thus: haem polymerization inhibitory activity (HPIA) assay. Format: biochemical. As to conditions: haematin, pH 2.6, 37 °C, 24 h; read-out: IC50, inhibition of haem polymerization formation. Here is the method:
Antimalarial activity was tested to (−)-6-epi-artemisinin (2) based on inhibition of haem polymerization. Haem is a by-product of haemoglobin digestion […]. It is potentially toxic to biological membranes and parasite enzymes, and it is thus sequestered in the form of an insoluble crystalline polymer, haemozoin or malaria pigment. Identifying molecules that interfere with haem polymerization is the basic principle of the assay. Haem can be polymerized in vitro, in the absence of proteins, from a solution of haematin at 70 °C or 37 °C at acidic pH. In vitro quantification of haem polymerization allows the identification of molecules with haem polymerization inhibitory activity (HPIA) and the assessment of their HPIA, relative to that of standard antimalarials like chloroquine.
100 microliters of a 0.5 mM solution of haematin, previously dissolved in 0.1 M NaOH, was distributed in 96-well U-bottomed microplates. […] The DMSO-soluble fraction (fraction II) was collected, and the pellet, consisting of a pure precipitate of haematin, was dissolved in 0.1 M NaOH (fraction III) for spectroscopic quantification. […] The amount of haematin was determined by measuring the absorbance at 405 nm using a microtiter plate reader. […]
Statistical analysis. […] Data were analyzed by Excel Microsoft. […]

The test system of a further data set is MCF breast cancer cells. As to conditions: read-out: IC50, antiproliferative activity, cited from earlier work.
Data set [1] has as its system SARS-CoV-2. The data set can be described thus: microbe, parasite or virus in culture. Format: cell-based. As to conditions: Vero E6 cells; for EC50: MOI 0.01, 24 h post infection, read-out: EC50, SARS-CoV-2 inhibitory assay.
A short description of the next data set: in vitro. As to conditions: African green monkey, CC50, cytotoxicity against Vero E6 cells, CCK8.
The subject of a further data set is Vero E6 cells. As to conditions: read-out: CC50, cytotoxicity against Vero E6 cells; CCK8.
Data set [2] concerns W2 apoptotic competent and D3 apoptotic deficient mouse epithelial cell lines. The data set can be described thus: apoptosis induction assay (MTT, W2 vs D3 cells). The data set is classed as cell-based. As to conditions: 48 h. From the text:
However, the antiproliferative activity of different artemisinin isomers has never been studied in the past. […] To address this subject, we performed an apoptosis induction assay with compound 2 in order to evaluate the effect of the change in configurations on this activity. To develop a cell-based assay specific for the identification of apoptosis-inducing compounds that are potential antiproliferative agents, we used two genetically engineered mouse epithitial cell lines: W2 apoptotic competent and D3 apoptotic deficient. Compounds that have the capacity to kill W2 and not D3 cells are consistent with proapoptotic, potentially antiproliferative activity. Compounds that meet these criteria activate apoptosis upstream in a pathway that requires Bax and Bak. […]
Apoptosis induction in the presence of compound 2 was carried out as follows. […] Cell viability was determined using a modification of the MTT assay, where the reduction of yellow tertazolium salt (MTT-3-(4,5-Dimethylthiazol-2-yl)-2,5) to purple formazan indicates mitochondrial activity, and thus cell viability. […] After 30 min incubation at 37 °C with shaking, absorbance was read at 570 nm on a Spectra MAX 250 (Molecular Devices) plate reader. Differential growth from time 0 to 48 h was calculated. […]

Data set [3] deals with SARS-CoV-2. Further details: method as in PMID 32786284. As to conditions: read-out: EC50, inhibitory effect on SARS-CoV-2; cited from earlier work.

A word on the EC50: it is the concentration that produces a half-maximal response. The term CC50 denotes the concentration at which the toxic effect on the cells reaches its halfway point.

For `CCN(CC)CCCC(C)Nc1ccnc2cc(Cl)ccc12` (stereo not drawn) [chloroquine, reference compound], the IC50 with haem polymerization is 0.018 ± 1e-06 µM.
Take `C[C@H]1[C@@H](O)O[C@@H]2O[C@@]3(C)CC[C@H]4[C@H](C)CC[C@@H]1[C@@]24OO3` [dihydroartemisinin]: in the data set with MCF breast cancer cells (these same cells (MCF)), the IC50 was 5.27 ± 0.01 µM.
Turning to `CC1CCC2C(C)C(=O)OC3OC4(C)CCC1C32OO4` (single isomer, unassigned; (-)) [compound 2, (−)-6-epi-artemisinin], the EC50 with SARS-CoV-2 [1] (Severe acute respiratory syndrome coronavirus 2, Vero C1008, 24 h) stood at 49 ± 0.32 µM. For the same molecule, the “inhibition of growth of SARS-CoV-2 (in words)” value (shortened to “inhibition”) with SARS-CoV-2 [1] was “inhibited the growth of SARS-CoV-2”. Further, the cytotoxic concentration (CC50) in the data set “in vitro” is greater than 200 µM; in the data set with Vero E6 cells, greater than 250 µM. For the same molecule, the IC50 in data set [2] (Mus musculus, Epithelial cell, read-out: IC50, induction of apoptosis, W2/D3 cells, 48 h, MTT) worked out at 10 µM; in data set [2] (read-out: IC50, induction of apoptosis, W2/D3 cells, MTT), 11 ± 0.71 µM; in the data set with haem polymerization, 0.0035 ± 2e-06 µM.
With `CC1CCC2C(C)C(=O)OC3OC4(C)CCC1C32OO4` (stereo not drawn) [compound 3, 9 epimer of 2], in the data set on SARS-CoV-2 [1], the “inhibition” value is reported as “inhibited the growth of SARS-CoV-2” and the EC50 turned out to be 54 ± 0.27 µM. Moreover, in the data set on Vero E6 cells, the CC50 was greater than 200 µM.
With `C[C@@H]1CC[C@H]2[C@@H](C)C(=O)O[C@@H]3O[C@@]4(C)CC[C@@H]1[C@]32OO4` [compound 1, (+)-artemisinin], in the data set with SARS-CoV-2 [1], the “inhibition” value is “inhibited the growth of SARS-CoV-2”. The IC50 in the data set with MCF breast cancer cells (MCF breast cancer cells) is 9.13 ± 0.07 µM. Besides, the concentration giving a half-maximal response (EC50) in the data set on SARS-CoV-2 [3] is 64 µM.
